In patent US4882349A, “Pyrrolacetic amides having antiinflammatory activity” (priority 1982, dated 1989):
Where two headings read alike, the source gives them in different places.

Key:
[1] = solubility; format: physicochemical
[2] = test system: carrageenin-induced oedema; assay: carrageenin-induced oedema test (anti-inflammatory activity); format: in vivo, albino male Wistar rats
Description: This effect was evaluated by means of an experimental model reproducing acute inflammation: for this purpose the carrageenin- induced oedema test was employed following the method described by C.
Albino male Wistar rats weighing 140-160 g were caged for 10 days at 22±1° C. and given a balanced diet and water ad libitum. Eighteen hours before the experiment the animals were randomized into groups of ten and fasted but with free access to water. Each dose was tested in three groups of rats. Each compound was given either orally, by gavage, or parenterally--intraperitoneal injection--administering as follows:
controls: 0.5% carboxymethylcellulose suspension in physiological saline, 10 ml/kg
treated: suspension of the compounds to be tested in the same vehicle and at the same volume (10 ml/kg) used for the controls at the doses specified below.
One hour after administration of the compounds and vehicle, in order to provoke the oedema for determining the protective effect of the substances under examination, each rat received, by subcutaneous injection into the plantar surface of the left paw, 0.1 ml of 1% sterile carrageenin suspension.

[3] = test system: gastric lesions; format: in vivo, male Wistar rats; conditions: 4 consecutive days; for mean severity: scale 0 (no lesion) to 5 (perforations)
Description: Male Wistar rats weighing 180 g were randomized into groups of 10. Three doses of each compound were administered. One group received the vehicle alone (10 ml/kg b.w.). Each dose was given orally for four days consecutively and the rats were sacrificed on the fifth day for necropsy. The ulcerogenic effect was evaluated by the following scale:
(1) each haemorrhagic point at least 1 mm in diameter was scored as 1 lesion,
(2) haemorrhagic points less than 1 mm in diameter were scored in the following manner:
(c) 20 to 29=three lesions
By means of this scale it was possible to obtain the gastric damage index:
I=mean no. of lesions+mean of severity+% incidence/10

[4] = test system: Mice; conditions: mouse, in vivo
[5] = test system: Rats; conditions: rat, in vivo
[6] = test system: brewers' yeast-induced hyperthermia; assay: antipyretic activity, brewers' yeast-induced hyperthermia; format: in vivo, albino male Wistar rats
Description: The animals were caged under the same conditions as those described in the preceding tests. Five hours following […], determined by a rectal probe connected to a YSI thermometer (73 ATP model, Yellow Springs Instrument Company) were selected for the experiment. The animals were then randomized into groups of 10 and the compounds under examination and the vehicle were administered via the oral and parenteral routes testing each dose in two groups. Body temperature was determined at one, two and three hours after administration of the substances. […]

[7] = test system: phenyl-p-quinone-induced writhing (abdominal contractions); assay: phenylquinone-induced writhing test (analgesic activity), compound given 30 min before phenyl-p-quinone; format: in vivo, male Wistar rats
Description: Male Wistar rats weighing 110±5 g were caged for 10 days at 22±1° C. and given a balanced diet with free access to water. Twenty-four hours before the experiment the animals were randomized into groups of 10 and fasted for 14 hours but with free access to water. Each dose was tested in 3 groups of rats. Thirty minutes following administration either orally or parenterally of the products to be tested and the vehicle alone (0.5% carboxymethyl-cellulose in physiological saline) in the control animals, each rat was given 2 ml of a 5% absolute ethanol aqueous solution containing 0.36% of phenyl-p-quinone (Sigma Chemical Company) in order to provoke writhings. Fifteen minutes after administration of phenyl-p-quinone the number of contractions were counted for 20 minutes. The inhibiting effect of the compounds under examination on the abdominal contractions induced by phenyl-p-quinone was calculated by the following formula: % protection= [formula]
Table V lists the tested compounds, doses, routes of administration and their efficacy expressed as percentage of protection, taking into account that phenyl-p-quinone was administered thirty minutes after the compounds.

Q: With `CCOC(=O)CNC(=O)Cc1ccc(C(=O)c2ccc(C)cc2)n1C` [Compound 1-b, 1-methyl-5-p-toluoylpyrrole-2-acetamidoacetic acid ethyl ester] as the compound, how does the Solubility [1] read?
A: soluble in the usual organic solvents

Q: Which results are given for `Cc1ccc(C(=O)c2ccc(CC(=O)NNCC(=O)N3CCN(C)CC3)n2C)cc1` [Compound 1-o, 1-methyl-5-p-toluoylpyrrole-2-acetic acid-2 [N-(4-methyl-1-piperazinyl)acetamide] hydrazide]?
A: oedema % inhibition ([2]; 25 mg/Kg per os, 2 h): 37.1%; oedema % inhibition ([2]; 25 mg/Kg per os, 4 h): 42.0%; oedema % inhibition ([2]; 25 mg/Kg per os, 6 h): 44.0%; oedema % inhibition ([2]; 25 mg/Kg per os, 24 h): 12.1%; oedema % inhibition ([2]; 25 mg/Kg per os, 48 h): 0.0%; oedema % inhibition ([2]; 25 mg/Kg per os, 72 h): 0.0%; oedema % inhibition ([2]; 25 mg/Kg, Table IV (route not given), 2 h): 39.0%; oedema % inhibition ([2]; 25 mg/Kg, Table IV (route not given), 4 h): 37.1%; oedema % inhibition ([2]; 25 mg/Kg, Table IV (route not given), 6 h): 36.0%; oedema % inhibition ([2]; 25 mg/Kg, Table IV (route not given), 24 h): 11.1%; oedema % inhibition ([2]; 25 mg/Kg, Table IV (route not given), 48 h): 0.0%; oedema % inhibition ([2]; 25 mg/Kg, Table IV (route not given), 72 h): 0.0%; oedema % inhibition ([2]; 50 mg/Kg per os, 2 h): 49.2%; oedema % inhibition ([2]; 50 mg/Kg per os, 4 h): 50.1%; oedema % inhibition ([2]; 50 mg/Kg per os, 6 h): 50.0%; oedema % inhibition ([2]; 50 mg/Kg per os, 24 h): 22.1%; oedema % inhibition ([2]; 50 mg/Kg per os, 48 h): 4.5%; oedema % inhibition ([2]; 50 mg/Kg per os, 72 h): 0.0%; oedema % inhibition ([2]; 50 mg/Kg, Table IV (route not given), 2 h): 52.1%; oedema % inhibition ([2]; 50 mg/Kg, Table IV (route not given), 4 h): 55.0%; oedema % inhibition ([2]; 50 mg/Kg, Table IV (route not given), 6 h): 43.0%; oedema % inhibition ([2]; 50 mg/Kg, Table IV (route not given), 24 h): 17.9%; oedema % inhibition ([2]; 50 mg/Kg, Table IV (route not given), 48 h): 0.0%; oedema % inhibition ([2]; 50 mg/Kg, Table IV (route not given), 72 h): 0.0%; oedema % inhibition ([2]; 100 mg/Kg per os, 2 h): 70.1%; oedema % inhibition ([2]; 100 mg/Kg per os, 4 h): 73.4%; oedema % inhibition ([2]; 100 mg/Kg per os, 6 h): 77.5%; oedema % inhibition ([2]; 100 mg/Kg per os, 24 h): 33.5%; oedema % inhibition ([2]; 100 mg/Kg per os, 48 h): 8.6%; oedema % inhibition ([2]; 100 mg/Kg per os, 72 h): 0.0%; oedema % inhibition ([2]; 100 mg/Kg, Table IV (route not given), 2 h): 79.1%; oedema % inhibition ([2]; 100 mg/Kg, Table IV (route not given), 4 h): 78.0%; oedema % inhibition ([2]; 100 mg/Kg, Table IV (route not given), 6 h): 77.3%; oedema % inhibition ([2]; 100 mg/Kg, Table IV (route not given), 24 h): 24.1%; oedema % inhibition ([2]; 100 mg/Kg, Table IV (route not given), 48 h): 0.0%; oedema % inhibition ([2]; 100 mg/Kg, Table IV (route not given), 72 h): 0.0%; mean no. of lesions ([3]; 50 mg/Kg orally): 1; gastric damage index ([3]; 50 mg/Kg orally, I=mean no. of lesions+mean of severity+% incidence/10): 9; mean severity ([3]; 50 mg/Kg orally): 1; mean no. of lesions ([3]; 100 mg/Kg orally): 2; mean severity ([3]; 100 mg/Kg orally): 1; mean no. of lesions ([3]; 200 mg/Kg orally): 2; LD50 ([4]; ip): 590 mg/kg; LD50 ([4]; po): 910 mg/kg; LD50 ([5]; ip): 700 mg/kg; LD50 ([5]; po): 978 mg/kg; % Temperature decrease ([6]; 50 mg/Kg i.p., 1 h): 13.0%; % Temperature decrease ([6]; 50 mg/Kg i.p., 2 h): 27.5%; % Temperature decrease ([6]; 50 mg/Kg i.p., 3 h): 39.6%; % Temperature decrease ([6]; 50 mg/Kg per os, 1 h): 12.0%; % Temperature decrease ([6]; 50 mg/Kg per os, 2 h): 23.1%; % Temperature decrease ([6]; 50 mg/Kg per os, 3 h): 35.2%; % Temperature decrease ([6]; 75 mg/Kg i.p., 1 h): 18.0%; % Temperature decrease ([6]; 75 mg/Kg i.p., 2 h): 27.0%; % Temperature decrease ([6]; 75 mg/Kg i.p., 3 h): 49.6%; % Temperature decrease ([6]; 75 mg/Kg per os, 1 h): 16.0%; % Temperature decrease ([6]; 75 mg/Kg per os, 2 h): 25.2%; % Temperature decrease ([6]; 75 mg/Kg per os, 3 h): 40.2%; % Temperature decrease ([6]; 100 mg/Kg i.p., 1 h): 30.1%; % Temperature decrease ([6]; 100 mg/Kg i.p., 2 h): 45.0%; % Temperature decrease ([6]; 100 mg/Kg i.p., 3 h): 62.1%; % Temperature decrease ([6]; 100 mg/Kg per os, 1 h): 29.1%; % Temperature decrease ([6]; 100 mg/Kg per os, 2 h): 33.7%; % Temperature decrease ([6]; 100 mg/Kg per os, 3 h): 59.0%; % Protection ([7]; 5 mg/Kg i.p.): 35.1%; % Protection ([7]; 5 mg/Kg per os): 29.3%; % Protection ([7]; 10 mg/Kg i.p.): 63.9%; % Protection ([7]; 10 mg/Kg per os): 60.4%; % Protection ([7]; 20 mg/Kg i.p.): 87.0%; % Protection ([7]; 20 mg/Kg per os): 86.2%

Q: What does the source list for `COc1ccc2c(c1)c(CC(=O)O)c(C)n2C(=O)c1ccc(Cl)cc1` [Indomethacin, reference compound]?
A: oedema % inhibition ([2]; 2.5 mg/Kg per os, 2 h): 20.6%; oedema % inhibition ([2]; 2.5 mg/Kg per os, 4 h): 33.7%; oedema % inhibition ([2]; 2.5 mg/Kg per os, 6 h): 25.2%; oedema % inhibition ([2]; 2.5 mg/Kg per os, 24 h): 6.0%; oedema % inhibition ([2]; 2.5 mg/Kg per os, 48 h): 0.0%; oedema % inhibition ([2]; 2.5 mg/Kg per os, 72 h): 0.0%; oedema % inhibition ([2]; 2.5 mg/Kg, Table IV (route not given), 2 h): 25.7%; oedema % inhibition ([2]; 2.5 mg/Kg, Table IV (route not given), 4 h): 38.0%; oedema % inhibition ([2]; 2.5 mg/Kg, Table IV (route not given), 6 h): 30.0%; oedema % inhibition ([2]; 2.5 mg/Kg, Table IV (route not given), 24 h): 5.0%; oedema % inhibition ([2]; 2.5 mg/Kg, Table IV (route not given), 48 h): 0.0%; oedema % inhibition ([2]; 2.5 mg/Kg, Table IV (route not given), 72 h): 0.0%; oedema % inhibition ([2]; 5 mg/Kg per os, 2 h): 34.3%; oedema % inhibition ([2]; 5 mg/Kg per os, 4 h): 45.9%; oedema % inhibition ([2]; 5 mg/Kg per os, 6 h): 42.1%; oedema % inhibition ([2]; 5 mg/Kg per os, 24 h): 4.2%; oedema % inhibition ([2]; 5 mg/Kg per os, 48 h): 0.0%; oedema % inhibition ([2]; 5 mg/Kg per os, 72 h): 0.0%; oedema % inhibition ([2]; 5 mg/Kg, Table IV (route not given), 2 h): 39.0%; oedema % inhibition ([2]; 5 mg/Kg, Table IV (route not given), 4 h): 50.1%; oedema % inhibition ([2]; 5 mg/Kg, Table IV (route not given), 6 h): 48.0%; oedema % inhibition ([2]; 5 mg/Kg, Table IV (route not given), 24 h): 7.0%; oedema % inhibition ([2]; 5 mg/Kg, Table IV (route not given), 48 h): 0.0%; oedema % inhibition ([2]; 5 mg/Kg, Table IV (route not given), 72 h): 0.0%; oedema % inhibition ([2]; 10 mg/Kg per os, 2 h): 66.4%; oedema % inhibition ([2]; 10 mg/Kg per os, 4 h): 53.2%; oedema % inhibition ([2]; 10 mg/Kg per os, 6 h): 51.6%; oedema % inhibition ([2]; 10 mg/Kg per os, 24 h): 20.0%; oedema % inhibition ([2]; 10 mg/Kg per os, 48 h): 6.0%; oedema % inhibition ([2]; 10 mg/Kg per os, 72 h): 0.0%; oedema % inhibition ([2]; 10 mg/Kg, Table IV (route not given), 2 h): 70.8%; oedema % inhibition ([2]; 10 mg/Kg, Table IV (route not given), 4 h): 66.6%; oedema % inhibition ([2]; 10 mg/Kg, Table IV (route not given), 6 h): 65.0%; oedema % inhibition ([2]; 10 mg/Kg, Table IV (route not given), 24 h): 16.0%; oedema % inhibition ([2]; 10 mg/Kg, Table IV (route not given), 48 h): 0.0%; oedema % inhibition ([2]; 10 mg/Kg, Table IV (route not given), 72 h): 0.0%
